Test results: ChEMBL document CHEMBL5727158, “Rho-associated protein kinase inhibitor, pharmaceutical composition comprising the same, as well as preparation method and use thereof” (2019)

Target: Rho-associated protein kinase 2 (Homo sapiens, UniProt O75116)
Assay: Biological Assay: The kinase IC50 was determined by a commercialized CISBIO kinase detection kit, HTRF KinEASE-STK S2 kit (62ST2PEC). ROCK2 (01-119) employed in the reaction was purchased from Carna Biosciences.Before the assay, the following working solutions as needed were formulated with corresponding reagents according to the instruction of the kinase detection kit: 1×kinase buffer, 5×STK-52 substrate working solution (1.5 μM) and 5×ATP working solution (1.5 μM), 5×ROCK2 kinase working solution, 4×Streptavidin-XL665 working solution, and 4×STK-Ab-Cryptate 2 detection solution. Then the assay was performed according to the following procedure.A solution of a compound at a concentration of 10000 nM was prepared with the 1×kinase buffer containing 2.5% DMSO. Gradient dilution of the solution of the compound was performed with the kinase buffer containing DMSO, so as to obtain solutions of a test compound at 9 different concentrations. In addition to wells of test compounds, a positive well (containing all the reagents except the compound) and a negative well (containing all the reagents except the test compound and kinase) were set. Except for the control wells (positive and negative wells), a solution of a test compound (4 μL) was added to each of the reaction wells, and a solution of 2.5% DMSO was added to the control wells. […]

Chain of Rho-associated protein kinase 2 (O75116 whole entry): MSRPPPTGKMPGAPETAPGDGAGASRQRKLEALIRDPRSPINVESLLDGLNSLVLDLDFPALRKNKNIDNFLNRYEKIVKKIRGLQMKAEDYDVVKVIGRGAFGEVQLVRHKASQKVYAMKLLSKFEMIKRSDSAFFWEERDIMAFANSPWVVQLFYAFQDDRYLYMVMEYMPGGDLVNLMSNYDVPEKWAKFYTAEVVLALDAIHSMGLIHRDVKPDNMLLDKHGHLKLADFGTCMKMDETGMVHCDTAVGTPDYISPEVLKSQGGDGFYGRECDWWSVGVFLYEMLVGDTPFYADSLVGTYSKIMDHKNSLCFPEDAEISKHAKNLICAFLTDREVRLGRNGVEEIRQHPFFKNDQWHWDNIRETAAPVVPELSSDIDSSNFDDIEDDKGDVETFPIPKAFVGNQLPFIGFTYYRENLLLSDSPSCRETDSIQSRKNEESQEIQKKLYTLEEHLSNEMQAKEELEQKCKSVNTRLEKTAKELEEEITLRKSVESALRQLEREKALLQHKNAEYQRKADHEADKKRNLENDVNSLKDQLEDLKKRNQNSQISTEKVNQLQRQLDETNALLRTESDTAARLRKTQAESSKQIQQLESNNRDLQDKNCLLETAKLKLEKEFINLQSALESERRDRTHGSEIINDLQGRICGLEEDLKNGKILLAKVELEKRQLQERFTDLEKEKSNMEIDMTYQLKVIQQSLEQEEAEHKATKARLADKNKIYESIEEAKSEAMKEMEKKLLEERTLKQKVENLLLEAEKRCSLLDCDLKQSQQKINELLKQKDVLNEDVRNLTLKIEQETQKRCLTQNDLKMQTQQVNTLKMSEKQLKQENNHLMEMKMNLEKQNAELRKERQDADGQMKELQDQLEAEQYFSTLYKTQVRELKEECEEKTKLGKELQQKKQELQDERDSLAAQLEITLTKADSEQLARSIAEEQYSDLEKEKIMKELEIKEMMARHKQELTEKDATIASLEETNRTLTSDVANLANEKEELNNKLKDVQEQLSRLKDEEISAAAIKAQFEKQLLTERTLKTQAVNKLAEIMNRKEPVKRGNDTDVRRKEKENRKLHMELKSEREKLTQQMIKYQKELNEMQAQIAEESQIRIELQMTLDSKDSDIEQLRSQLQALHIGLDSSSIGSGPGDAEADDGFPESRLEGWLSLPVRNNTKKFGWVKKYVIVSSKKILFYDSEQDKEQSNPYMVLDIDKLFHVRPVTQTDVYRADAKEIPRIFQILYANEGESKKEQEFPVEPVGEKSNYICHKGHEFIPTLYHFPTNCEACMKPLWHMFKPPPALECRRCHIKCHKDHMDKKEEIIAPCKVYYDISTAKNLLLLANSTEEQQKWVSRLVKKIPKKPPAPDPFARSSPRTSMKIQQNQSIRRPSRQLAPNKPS

- IC50: 71 nM
Structure (SMILES): O=C(Nc1ccc(-c2cn[nH]c2)cc1)c1cc2ccc(-c3nccc(Nc4ccc5[nH]ncc5c4)n3)cc2[nH]1
